Source: ChEMBL document CHEMBL1137034, “Synthesis of 1H-pyridin-2-one derivatives as potent and selective farnesyltransferase inhibitors” (Bioorg Med Chem Lett, 2004)
pEC50, pIC50: −log10 of the molar value.

How the values were obtained:
[1] = biological target: T1, Geranylgeranyl transferase type I (Bos taurus, UniProt P29702+Q5EAD5); test: inhibitory concentration needed to reduce the bovine GGTase-catalyzed incorporation of […] into a biotin-linked K-ras (B) decapeptide; format: protein-complex assay
[2] = Inhibition of [3H]FPP incorporation into biotin-linked K-ras decapeptide (CVIM) by bovine farnesyltransferase; design: species or system Bos taurus
[3] = biological target: Protein farnesyltransferase (Mus musculus, UniProt Q61239+Q8K2I1); test: Reduced farnesylation of H-ras transformed NIH3T3 cells; format: functional, cell-based
[4] = Half life in dog; format: ADME, Canis lupus familiaris; conditions: in vivo
[5] = Plasma clearance was determined; format: ADME, organism-based, Canis lupus familiaris; conditions: dog, in vivo
[6] = Oral bioavailability in dog; format: ADME, organism-based, Canis lupus familiaris; conditions: in vivo
[7] = biological target: T1, Geranylgeranyl transferase type I; test: Inhibition of [3H]FPP incorporation into biotin-linked K-ras decapeptide (CVLL) by bovine geranylgeranyltransferase; format: protein-complex assay
[8] = Inhibition of [3H]-FPP incorporation into biotin-linked K-ras decapeptide (CVIM) by bovine farnesyltransferase; design: species or system Bos taurus

| Compound | pIC50 [1] | pIC50 [2] | pEC50 [3] | also measured |
| --- | --- | --- | --- | --- |
| Cn1cncc1C(OCc1c(-c2cccc(C(F)(F)F)c2)cc(C#N)n(C)c1=O)c1ccc(C#N)cc1 (configuration not stated) | 5.44 | 8.12 |  |  |
| Cn1cncc1C(OCc1c[nH]c(=O)cc1-c1cccc(Cl)c1)c1ccc(C#N)cc1 (configuration not stated) | 5.21 |  |  |  |
| Cn1cncc1C(OCc1cn(Cc2cccnc2Br)c(=O)cc1-c1cccc(Cl)c1)c1ccc(C#N)cc1 (configuration not stated) | 5.18 | 8.52 |  |  |
| Cn1cncc1C(OCc1cn(C)c(=O)cc1-c1cccc(Cl)c1)c1ccc(C#N)cc1 (configuration not stated) | < 5.00 | 7.92 |  |  |
| Cn1cncc1C(OCc1cn(Cc2cccc(F)c2)c(=O)cc1-c1cccc(Cl)c1)c1ccc(C#N)cc1 (configuration not stated) | 5.70 | 8.68 | 7.82 |  |
| Cn1cncc1C(OCc1c(-c2cccc(Cl)c2)cc(C#N)n(C)c1=O)c1ccc(C#N)cc1 (configuration not stated) | < 5.00 | 8.92 | 7.94 |  |
| Cn1cncc1C(OCc1cn(Cc2ccccc2C#N)c(=O)cc1-c1cccc(Cl)c1)c1ccc(C#N)cc1 (configuration not stated) | 5.11 | 8.64 |  |  |
| Cn1cncc1C(OCc1cn(Cc2cccc(C#N)c2)c(=O)cc1-c1cccc(Cl)c1)c1ccc(C#N)cc1 (configuration not stated) | 5.72 | 8.89 | 8.05 | half-life [4]: 84 min; Plasma clearance [5]: 0.53 L/h/kg; bioavailability [6]: 47% |
| Cn1cncc1C(OCc1ccc(C#N)cc1-c1cccc(Cl)c1)c1ccc(C#N)cc1 (configuration not stated) | 8.89 | 9.06 | 8.28 |  |
| Cn1cncc1C(OCc1cn(CC#N)c(=O)cc1-c1cccc(Cl)c1)c1ccc(C#N)cc1 (configuration not stated) | < 5.00 | 7.72 |  |  |
| Cn1cncc1C(OCc1c(-c2cc(Cl)cc(Cl)c2)cc(C#N)n(C)c1=O)c1ccc(C#N)cc1 (configuration not stated) | 5.03 | 8.96 | 7.82 |  |
| Cn1cncc1C(OCc1c(-c2cccc(Cl)c2)cc(C#N)c(=O)n1C)c1ccc(C#N)cc1 (configuration not stated) | 8.57 | 9.36 | 9.30 |  |
| Cn1cncc1C(OCc1cn(Cc2ccc(C#N)cc2)c(=O)cc1-c1cccc(Cl)c1)c1ccc(C#N)cc1 (configuration not stated) |  |  |  | pIC50 [7]: < 5.00; pIC50 [8]: 8.30 |
| Cn1cncc1C(OCc1cn(Cc2cccc(Cl)c2)c(=O)cc1-c1cccc(Cl)c1)c1ccc(C#N)cc1 (configuration not stated) | 5.92 | 8.68 | 8.00 |  |
